The subject of one data set is Trypanosoma brucei. Put plainly: Antitrypanosomal activity against Trypanosoma brucei. In kind it is functional, organism-based.
The nature of data set [1]: Cytotoxicity against human HepG2 cells assessed as reduction in cell viability. The format is cell-based.
A short description of data set [2]: Selectivity index, ratio of CC50 for human HepG2 cells to EC50 for Trypanosoma brucei. Conditions: read-out: Ratio CC50/EC50. The format is toxicity.
Data set [3] addresses Rhodesain (Trypanosoma brucei rhodesiense) (UniProt Q95PM0). The data set is described as follows: Inhibition of Trypanosoma brucei rhodesain assessed as Kinact/Ki ratio.
For data set [4] the target is unchanged. The data set is described as follows: Inhibition of Trypanosoma brucei rhodesain at 10 uM measured after 1 hr relative to control.

Chain of Rhodesain (Trypanosoma brucei rhodesiense) (Q95PM0 1-450): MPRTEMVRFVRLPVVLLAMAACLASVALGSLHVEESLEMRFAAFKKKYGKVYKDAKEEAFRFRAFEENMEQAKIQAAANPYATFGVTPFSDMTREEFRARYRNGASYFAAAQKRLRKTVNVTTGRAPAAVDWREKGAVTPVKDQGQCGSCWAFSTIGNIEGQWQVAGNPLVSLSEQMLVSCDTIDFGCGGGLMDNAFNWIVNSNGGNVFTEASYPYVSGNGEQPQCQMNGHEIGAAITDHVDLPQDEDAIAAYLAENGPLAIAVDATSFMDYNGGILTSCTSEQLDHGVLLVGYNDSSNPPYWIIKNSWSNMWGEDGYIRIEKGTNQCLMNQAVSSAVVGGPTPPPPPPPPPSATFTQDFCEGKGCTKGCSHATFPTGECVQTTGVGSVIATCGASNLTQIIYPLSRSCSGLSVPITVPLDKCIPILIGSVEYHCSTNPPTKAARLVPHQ

One may read the EC50 as the concentration giving half of the maximal effect. A lower EC50 goes with a more potent agent. Broadly, the CC50 is the concentration at which the toxic effect on the cells reaches its halfway point. As a reminder, the inhibition is the percentage by which the read-out fell short of the control. Lower therefore signals little suppression. In the data set with Trypanosoma brucei, `O=C(N[C@H](/C=C/S(=O)(=O)c1ccccc1)CCc1ccccc1)c1cccc2c1NCCC2` returned a 50% effective concentration (EC50) of 6.3 µM. Further, the CC50 in data set [1] was above 160 µM. For the same compound, in data set [2], the selectivity ratio is above 25. The kinact/Ki in data set [3] is 245 M⁻¹ s⁻¹. Besides, the inhibition in data set [4] was found to be 100%.
The compound `O=C(NC/C=C/S(=O)(=O)c1ccccc1)c1cccc2cccnc12` showed an EC50 with Trypanosoma brucei of 14.3 µM. In addition, the CC50 in data set [1] stood at 55.5 µM. The selectivity ratio in data set [2] was found to be 3.86.
As to `C[C@H]1CC(C)(C)Nc2c(C(=O)N[C@H](/C=C/S(=O)(=O)c3ccccc3)CCc3ccccc3)cccc21`, in the data set with Trypanosoma brucei, the response was half-maximal at 3.02 µM (EC50). Moreover, in data set [1], the CC50 was above 300 µM. Also, in data set [2], the selectivity ratio is above 99.3.
Consider `Cn1cc([N+](=O)[O-])nc1C(=O)N[C@H](/C=C/S(=O)(=O)c1ccccc1)CCc1ccccc1`, for which the EC50 in the data set on Trypanosoma brucei was found to be 7.04 µM. Besides, in data set [1], the CC50 was 28.8 µM. Further, in data set [2], the selectivity ratio was found to be 4.08. Further, in data set [3], the kinact/Ki came out at 59 M⁻¹ s⁻¹. This compound also showed an inhibition in data set [4] of 91.9%.
In turn, `O=C(N[C@H](/C=C/S(=O)(=O)c1ccccc1)CCc1ccccc1)c1ccc([N+](=O)[O-])s1` had an EC50 with Trypanosoma brucei of 0.69 µM. In addition, in data set [1], the CC50 turned out to be 12.4 µM. Moreover, the selectivity ratio in data set [2] is 18. Also, the inhibition in data set [4] was 100%.
As to `O=C(N[C@H](/C=C/S(=O)(=O)c1ccccc1)Cc1ccccc1)c1cccc2cccnc12`, the response in the data set on Trypanosoma brucei was half-maximal at 11.7 µM (EC50). Moreover, in data set [1], the CC50 turned out to be 25.3 µM. The selectivity ratio in data set [2] came to 2.16.
`O=C(N[C@H](/C=C/S(=O)(=O)c1ccccc1)CCc1ccccc1)c1ccc([N+](=O)[O-])o1` showed an EC50 in the data set with Trypanosoma brucei of 0.11 µM. In data set [1], the CC50 was determined as 5.17 µM. In data set [2], the selectivity ratio came to 47. In data set [4], this compound yielded an inhibition of 78.1%.
`Cc1ccc(C(=O)Nc2ccc(S(=O)(=O)O)c3cc(S(=O)(=O)O)cc(S(=O)(=O)O)c23)cc1NC(=O)c1cccc(NC(=O)Nc2cccc(C(=O)Nc3cc(C(=O)Nc4ccc(S(=O)(=O)O)c5cc(S(=O)(=O)O)cc(S(=O)(=O)O)c45)ccc3C)c2)c1` [SURAMIN] yielded an EC50 in the data set with Trypanosoma brucei of 0.004 µM.
Regarding `CC1=CC(C)(C)Nc2c(C(=O)N[C@H](/C=C/S(=O)(=O)c3ccccc3)CCc3ccccc3)cccc21`, it took 1.88 µM to reach a half-maximal effect with Trypanosoma brucei (EC50). In addition, in data set [1], the CC50 was above 300 µM. In addition, the selectivity ratio in data set [2] was above 160.
With `O=C(N[C@H](/C=C/S(=O)(=O)c1ccccc1)CCc1ccccc1)[C@@H]1CSCN1`, a half-maximal effect with Trypanosoma brucei (EC50) was put at 6.94 µM. Moreover, in data set [1], the CC50 came to 77.8 µM. The selectivity ratio in data set [2] is 11.2. Further, the kinact/Ki in data set [3] came to 161 M⁻¹ s⁻¹. The compound further had an inhibition in data set [4] of 99.3%.
The like results for `CCCC[C@@H](/C=C/S(=O)(=O)c1ccccc1)NC(=O)c1cccc2cccnc12` were, in that order, 6.2 µM, 36.5 µM, 6.38, 108 M⁻¹ s⁻¹ and 96.2%.
In the case of `COc1cc([C@@H]2c3cc4c(cc3[C@H](O)[C@H]3COC(=O)[C@H]23)OCO4)cc(OC)c1OC` [PODOFILOX], the CC50 in data set [1] was below 0.5 µM.
The compound `CC(C)C[C@@H](/C=C/S(=O)(=O)c1ccccc1)NC(=O)c1cccc2cccnc12` had an EC50 in the data set with Trypanosoma brucei of 7.98 µM. The CC50 in data set [1] is 15.1 µM. For the same compound, the selectivity ratio in data set [2] was determined as 1.89.
Consider `CCC[C@@H](/C=C/S(=O)(=O)c1ccccc1)NC(=O)c1cccc2cccnc12`, for which the EC50 in the data set on Trypanosoma brucei was determined as 9.23 µM. Moreover, the CC50 in data set [1] was above 80 µM. For the same compound, the selectivity ratio in data set [2] was above 8.66. Also, the kinact/Ki in data set [3] was found to be 82.1 M⁻¹ s⁻¹. Besides, the inhibition in data set [4] was 93.5%.
Take `Cc1ncn(C)c1C(=O)N[C@H](/C=C/S(=O)(=O)c1ccccc1)CCc1ccccc1`: the EC50 in the data set on Trypanosoma brucei is 19.6 µM. For the same compound, in data set [1], the CC50 was 34.4 µM. In data set [2], the selectivity ratio was found to be 1.76.
Consider `O=C(N[C@H](/C=C/S(=O)(=O)c1ccccc1)CCc1ccccc1)c1cccc2cccnc12`, for which the EC50 in the data set on Trypanosoma brucei is 5.97 µM. Further, the CC50 in data set [1] is above 80 µM. Moreover, in data set [2], the selectivity ratio is above 13.4. In data set [4], this compound registered an inhibition of 100%.
In the data set on Trypanosoma brucei, `O=C(N[C@H](/C=C/S(=O)(=O)c1ccccc1)CCc1ccccc1)c1cccc2nccnc12` yielded an EC50 of 5.9 µM. For the same compound, the CC50 in data set [1] was found to be 39.6 µM. For the same compound, the selectivity ratio in data set [2] was found to be 6.71. The kinact/Ki in data set [3] stood at 293 M⁻¹ s⁻¹. Besides, the inhibition in data set [4] amounted to 99.1%.
In turn, `O=C(Cc1ccccn1)N[C@H](/C=C/S(=O)(=O)c1ccccc1)CCc1ccccc1` returned an EC50 with Trypanosoma brucei above 20 µM. For the same compound, the CC50 in data set [1] was 37.9 µM.

(Values after ChEMBL document CHEMBL4622901, “Vinyl sulfone-based inhibitors of trypanosomal cysteine protease rhodesain with improved antitrypanosomal activities” (Bioorg Med Chem Lett, 2020).)
